Biological target: T1, HLA-DR1 (Homo sapiens, UniProt P01903+P01911, A100R/D57E/F55L/F60I/F76Y/I96L/L162R/M171V/P40L/Q125E/R42F/V115G/Y59C)
T1 construct: made in house; host or cells: stably transfected Drosophila S2 insect cell lines (DR1 and DM separately)
Format: binding

For “PVSKMRMATPLLMQA [CLIP, residues 87–101 of the CLIP peptide]”, the “largest CLIP/DR1 complex dissociation measured” value was about 55% and the “t 1/2 of CLIP dissociation from DR1” value was “approximately 80 min”.

From publication PMC2580030 (PLoS ONE, 2008)
